From US20220315574A1, “Beta-Arrestin-Modulating Compounds and Methods of Using Same” (Duke University, priority 2019, published 2022)
Counter-ions that a name gives are not always drawn.

Assays:
[1] = biological target: T1, βarr2 (Rattus norvegicus, UniProt P29067); assay: Dynamic light scattering (DLS) of βarr2; design: final βarr2 (truncated βarr2 at 394) concentration of ˜1 mg/mL; made in house; conditions: control βarr2 7.1 nm; Cmpd-30 60 μM
Experimental: DLS was performed on a Zetasizer Nano ZS instrument (Malvern Instruments, UK) at an excitation He—Ne laser source of 633 nm and a detector at a scattering angle of 173°. The measurements were obtained at 25° C. and defined time intervals. A low volume (100 μl) disposable sample cuvette was used (BRAND, Wertheim, Germany). The protein solutions used for all particle size measurements were at a final βarr2 (truncated βarr2 at 394) concentration of ˜1 mg/mL (20 μM) in a buffer consisting of […] (pH 7.4) and 150 mM NaCl in presence of Cmpd-30 (60 μM), IP6 (300 uM) or vehicle (DMSO). Size distributions of scattering particles of different βarr2 sample were obtained after data analysis performed on intensity and volume size distribution curves and the molecular mass and Z-average size calculated using Malvern DTS software.

[2] = biological target: T1, βarr2; assay: Negative-stain electron microscopy, 2D class averages of βarr2; design: final βarr2 (truncated βarr2 at 394) concentration of ˜1 mg/mL; made in house
Experimental: To prepare for EM visualization of the architecture and structural organization of βarr2-Cmpd30 complexes, purified βarr2 (394) was diluted to 0.5 μM and incubated with 5 μM Cmpd-30 or vehicle (DMSO) in HN buffer (20 mM HEPES pH 7.4 and 150 mM NaCl) for 7 min at room temperature followed by dilution 10× into HN buffer containing 1 μM Cmpd-30, before negative staining. The positive control, βarr2 bound to IP6 sample was prepared similarly (5 μM and 250 μM, respectively) and was diluted 100× into HN buffer containing 10 μM IP6. Grids were prepared using conventional negative-staining protocols as described previously (Peisley, A. & Skiniotis, G. 2D Projection Analysis of GPCR Complexes by Negative Stain Electron Microscopy. Methods Mol Biol 1335, 29-38, doi:10.1007/978-1-4939-2914-6_3 (2015). Briefly, 3 μL of samples were applied onto a glow-discharged EM carbon-coated copper grid, adsorbed on the grid surface, blotted, stained, and air dried before imaging. EM grids were examined with a FEI Tecnai G2 Twin electron microscope and operated at an acceleration voltage of 120 kV. Images were recorded with an Eagle 2K CCD camera at a magnification of ×65,200 and a defocus value of ˜1.5 μm. Two-dimensional EM reference-free alignment and classification of particle projections were performed with the iterative stable alignment and clustering procedure (ISAC)(Yang, Z., et al., Iterative stable alignment and clustering of 2D transmission electron microscope images. Structure 20, 237-247, doi:10.1016/j.str.2011.12.007 (2012)). EM single particles were both automatically and manually selected using Boxer (part of the EMAN 2.1 software suite)(Tang, G. et EMAN2: an extensible image processing suite for electron microscopy. J Struct Biol 157, 38-46, doi:10.1016/j.jsb.2006.05.009 (2007)). A total of ˜250,000 0° particles projections were picked representing all the three βarr2 samples (with vehicle, Cmpd-30 or IP6) and windowed into 96×96-pixel images (with the RELION 2.1-beta-1 software package) and subjected to ISAC. […]

[3] = biological target: ERK2-βarr2 complex (Rattus norvegicus, UniProt P29067); assay: Pull-down of 3×Flag-ERK2 with βarr2; assay type: binding; conditions: series of concentrations of compound
ERK2-βarr2 complex, sequence (P29067 whole entry): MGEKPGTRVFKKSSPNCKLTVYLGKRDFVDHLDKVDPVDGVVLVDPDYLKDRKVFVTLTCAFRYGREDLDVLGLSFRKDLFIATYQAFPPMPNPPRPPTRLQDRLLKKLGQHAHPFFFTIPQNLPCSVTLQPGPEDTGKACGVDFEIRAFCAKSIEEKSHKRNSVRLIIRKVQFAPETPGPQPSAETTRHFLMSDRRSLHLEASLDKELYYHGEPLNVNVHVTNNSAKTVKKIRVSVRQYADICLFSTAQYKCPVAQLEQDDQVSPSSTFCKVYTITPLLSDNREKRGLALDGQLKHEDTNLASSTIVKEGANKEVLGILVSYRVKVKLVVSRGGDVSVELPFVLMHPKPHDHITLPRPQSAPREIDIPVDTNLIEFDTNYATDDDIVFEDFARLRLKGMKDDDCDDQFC
ERK2-βarr2 complex, sequence (P28482 whole entry partner): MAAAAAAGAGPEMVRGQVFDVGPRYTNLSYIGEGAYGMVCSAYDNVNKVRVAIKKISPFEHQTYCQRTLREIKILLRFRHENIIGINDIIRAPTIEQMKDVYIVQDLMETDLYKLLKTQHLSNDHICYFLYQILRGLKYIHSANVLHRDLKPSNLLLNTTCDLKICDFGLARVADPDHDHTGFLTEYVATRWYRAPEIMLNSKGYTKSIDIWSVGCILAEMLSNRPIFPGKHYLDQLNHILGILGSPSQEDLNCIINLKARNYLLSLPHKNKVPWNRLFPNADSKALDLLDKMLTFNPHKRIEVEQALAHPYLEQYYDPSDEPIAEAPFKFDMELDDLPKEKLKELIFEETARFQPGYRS
Experimental: Given this surprising result on the ability of Cmpd-30 to activate ERK βarr1/2-dependent but receptor independent manner, next it was determined whether βarr2 and ERK2 can physically interact in the presence of Cmpd-30 by a pull-down assay. Purified 3×Flag-ERK2 was incubated with βarr2 in the presence of a series of concentrations of Cmpd-30 or vehicle.

T1 sequence (P29067 1-394): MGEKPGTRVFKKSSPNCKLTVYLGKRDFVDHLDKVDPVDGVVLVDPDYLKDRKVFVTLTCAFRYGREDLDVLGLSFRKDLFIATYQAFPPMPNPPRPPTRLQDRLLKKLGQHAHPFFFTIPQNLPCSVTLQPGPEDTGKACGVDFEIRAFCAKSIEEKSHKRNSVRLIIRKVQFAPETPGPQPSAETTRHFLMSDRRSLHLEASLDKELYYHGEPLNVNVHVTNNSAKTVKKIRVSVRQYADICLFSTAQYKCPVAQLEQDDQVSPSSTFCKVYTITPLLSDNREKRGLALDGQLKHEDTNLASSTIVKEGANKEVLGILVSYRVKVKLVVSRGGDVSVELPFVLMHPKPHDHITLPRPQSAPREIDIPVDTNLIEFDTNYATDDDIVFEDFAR

particle (hydrodynamic) diameter of βarr2 [1]: 8.2 nm | particle average width of βarr2 class averages ([2]; control βarr2 ~72 Å): 80-90 Å | class averages represented as homo-oligomers (dimers/trimers) ([2]; control βarr 97% monomeric): 95%
Structure (SMILES): CN(C)c1n/c(=N/Cc2ccco2)ss1 [Cmpd-30, 5-(furan-2-ylmethylimino)-N,N-dimethyl-1,2,4-dithiazol-3-amine;hydrobromide]
ERK2-βarr2 complex formation [3]: forms a complex in vitro with βarr2 in a Cmpd-30-dependent manner
